Laboratory results published in patent US10039753B2, “Imidazo[4,5-c]quinoline and imidazo[4,5-c][1,5]naphthyridine derivatives as LRRK2 inhibitors” (Pfizer Inc., priority 2015, dated 2018).
pIC50: −log10 of the molar value. Structures can show the parent of a compound that is named as a salt.

Columns and labels:
mutant G2019S LRRK2 = mutant G2019S LRRK2 (Homo sapiens, UniProt Q5S007, G2019S); assay: LRRK2 Assay, Format 1 (Lantha Screen), G2019S mutant
Procedure: LRRK2 kinase activity was measured using Lantha Screen technology from Invitrogen. GST-tagged truncated LRRK2 from Invitrogen (Cat # PV4874) was incubated with a fluorescein-labeled peptide substrate based upon ezrin/radixin/moesin (ERM), also known as LRRKtide (Invitrogen cat # PR8976A), in the presence of a dose response of compound. Upon completion, the assay was stopped and detected with a terbium labeled anti-phospho-ERM antibody (Invitrogen, cat # PR8975A). […] Aliquots (3.5 μL) of the 100% DMSO dose response were mixed with 46.5 μL water then 1 μL of this mixture was added to the 3 μL substrate mix in the 384-well plate. The kinase reaction was started with 3 μL of a working solution of LRRK2 enzyme at a concentration of 4 μg/mL. […] The reaction was allowed to progress at room temperature for two hours and then stopped with the addition of 7 μL of detection buffer (20 mM Tris pH 7.6, 0.01% NP-40, 0.02% NaN3, 6 mM EDTA with 2 nM terbium labeled anti-phospho-ERM).
All final concentrations of substrate ATP and enzyme were the same.

[1] = molecular target: T1, GST-tagged truncated LRRK2 (Homo sapiens, UniProt Q5S007); assay: LRRK2 Assay, Format 1 (Lantha Screen), WT; type: biochemical
T1 construct: GST-tagged truncated LRRK2 from Invitrogen (Cat # PV4874); GST; purchased Invitrogen PV4874
T1 sequence (Q5S007 970-2527 limits assumed): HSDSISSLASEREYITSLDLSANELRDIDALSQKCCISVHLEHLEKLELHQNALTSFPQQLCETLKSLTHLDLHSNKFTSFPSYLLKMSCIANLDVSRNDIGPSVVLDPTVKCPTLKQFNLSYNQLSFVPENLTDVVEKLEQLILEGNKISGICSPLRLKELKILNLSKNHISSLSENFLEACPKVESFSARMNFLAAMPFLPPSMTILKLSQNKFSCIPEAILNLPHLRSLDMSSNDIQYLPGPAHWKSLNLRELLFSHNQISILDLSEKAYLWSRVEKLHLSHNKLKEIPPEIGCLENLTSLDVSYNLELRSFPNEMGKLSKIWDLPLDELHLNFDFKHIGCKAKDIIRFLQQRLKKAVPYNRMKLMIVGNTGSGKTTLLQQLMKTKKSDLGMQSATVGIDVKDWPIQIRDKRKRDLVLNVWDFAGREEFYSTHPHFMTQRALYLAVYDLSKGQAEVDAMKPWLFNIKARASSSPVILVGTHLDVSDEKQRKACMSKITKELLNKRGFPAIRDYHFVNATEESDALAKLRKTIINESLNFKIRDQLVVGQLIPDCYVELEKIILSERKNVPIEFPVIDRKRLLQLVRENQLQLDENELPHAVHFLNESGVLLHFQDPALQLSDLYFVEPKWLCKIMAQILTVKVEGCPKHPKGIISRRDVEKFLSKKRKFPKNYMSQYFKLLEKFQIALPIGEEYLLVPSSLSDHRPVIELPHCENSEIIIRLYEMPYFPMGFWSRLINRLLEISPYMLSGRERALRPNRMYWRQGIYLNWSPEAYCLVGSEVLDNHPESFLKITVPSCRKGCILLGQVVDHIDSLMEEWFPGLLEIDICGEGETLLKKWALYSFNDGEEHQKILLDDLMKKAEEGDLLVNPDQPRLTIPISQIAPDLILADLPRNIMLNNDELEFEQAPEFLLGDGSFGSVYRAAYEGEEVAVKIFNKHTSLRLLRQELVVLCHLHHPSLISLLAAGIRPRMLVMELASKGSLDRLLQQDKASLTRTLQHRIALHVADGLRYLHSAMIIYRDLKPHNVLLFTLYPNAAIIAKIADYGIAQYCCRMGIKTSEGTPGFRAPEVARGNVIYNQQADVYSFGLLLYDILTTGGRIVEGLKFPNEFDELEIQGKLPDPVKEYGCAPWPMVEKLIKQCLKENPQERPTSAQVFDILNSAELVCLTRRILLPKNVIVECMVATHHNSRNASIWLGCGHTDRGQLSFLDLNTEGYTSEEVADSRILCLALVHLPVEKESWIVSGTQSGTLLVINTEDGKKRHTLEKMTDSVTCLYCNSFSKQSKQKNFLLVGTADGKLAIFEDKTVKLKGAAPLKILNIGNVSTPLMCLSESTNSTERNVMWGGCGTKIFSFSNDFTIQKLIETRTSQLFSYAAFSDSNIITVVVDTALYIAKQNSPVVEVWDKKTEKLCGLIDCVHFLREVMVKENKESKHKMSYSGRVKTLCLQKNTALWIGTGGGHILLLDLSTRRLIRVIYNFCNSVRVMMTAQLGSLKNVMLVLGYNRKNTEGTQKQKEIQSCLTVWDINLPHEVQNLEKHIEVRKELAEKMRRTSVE
Summary of the method: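 Kinase activity measured by TR-FRET: GST-tagged truncated LRRK2 (4 μg/mL working solution) reacted with fluorescein-labeled LRRKtide (ERM-based peptide) across a compound dose response for 2 h at room temperature. Reaction stopped with EDTA-containing detection buffer (20 mM Tris pH 7.6) holding 2 nM terbium anti-phospho-ERM antibody.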

[2] = Format 1, wild-type LRRK2, geometric mean of 2-4 determinations unless footnoted (a: ≥5 determinations; b: single determination; c: determined on trifluoroacetate salt)
[3] = 100 nM LRRKtide, 50 μM ATP, 1.7 μg/mL LRRK2 enzyme, two hours at room temperature

Sequence of mutant G2019S LRRK2 (Q5S007 970-2527 G2019S limits assumed): as the sequence (Q5S007 970-2527 limits assumed) above, with G1050S counted along it

| pIC50 (mutant G2019S LRRK2) | pIC50 [1, 2] | LRRK2 potency compared to Example 5 (its enantiomer) ([1]; qualitative statement referring to Table 3 data) | pIC50 [1, 3] | Structure (SMILES) |
| --- | --- | --- | --- | --- |
| 6.82 | 6.90 |  |  | Cc1cn2cc(Cc3nc4cnc5ccccc5c4n3C3CCOCC3)nc2s1 [Example 31, 2-[(2-methylimidazo[2,1-b][1,3]thiazol-6-yl)methyl]-1-(tetrahydro-2H-pyran-4-yl)-1H-imidazo[4,5-c]quinoline] |
| 6.81 | 6.89 |  |  | Fc1ccc2ncc3nc(Cc4ccon4)n(C4CCOCC4)c3c2c1 [Example 75, 8-fluoro-2-(1,2-oxazol-3-ylmethyl)-1-(tetrahydro-2H-pyran-4-yl)-1H-imidazo[4,5-c]quinoline, trifluoroacetate salt] |
| 6.96 | 6.92 |  |  | FC(F)(F)c1cnn(Cc2nc3cnc4ccccc4c3n2C2CCOCC2)c1 [Example 43, 1-(tetrahydro-2H-pyran-4-yl)-2-{[4-(trifluoromethyl)-1H-pyrazol-1-yl]methyl}-1H-imidazo[4,5-c]quinoline] |
| 7.26 | 7.17 |  |  | Fc1ccc2ncc3nc(Cn4cc5ccccc5n4)n(C4CCOCC4)c3c2c1 [Example 76, 8-fluoro-2-(2H-indazol-2-ylmethyl)-1-(tetrahydro-2H-pyran-4-yl)-1H-imidazo[4,5-c]quinoline, trifluoroacetate salt] |
| 7.51 | 7.25 |  |  | F[C@@H]1CC[C@H](n2c(Cc3ccon3)nc3cnc4ccc(Br)cc4c32)C1 [Example 25, 8-bromo-1-[(1S,3R)-3-fluorocyclopentyl]-2-(1,2-oxazol-3-ylmethyl)-1H-imidazo[4,5-c]quinoline, formate salt] |
| 7.84 | 7.41 |  |  | COc1ccc2ncc3nc(Cc4cc(C)on4)n([C@@H]4CCO[C@H](C)C4)c3c2c1 (single isomer, unassigned) [Example 1] |
| 8.19 | 7.83 |  |  | COc1ccc2ncc3nc(Cc4cn5ncsc5n4)n([C@@H]4CCO[C@H](C)C4)c3c2c1 [Example 90, 2-(imidazo[2,1-b][1,3,4]thiadiazol-6-ylmethyl)-8-methoxy-1-[(2R,4R)-2-methyltetrahydro-2H-pyran-4-yl]-1H-imidazo[4,5-c]quinoline] |
| 7.89 | 7.38 |  |  | COc1ccc2ncc3nc(Cc4ccon4)n([C@@H]4CCO[C@H](C)C4)c3c2c1 [Example 62, 8-methoxy-1-[(2R,4R)-2-methyltetrahydro-2H-pyran-4-yl]-2-(1,2-oxazol-3-ylmethyl)-1H-imidazo[4,5-c]quinoline] |
| 8.35 | 8.12 |  |  | C[C@H]1C[C@@H](n2c(Cc3ccon3)nc3cnc4ccc(C#N)cc4c32)CCO1 (racemic) [Example 21, 1-(cis-2-methyltetrahydro-2H-pyran-4-yl)-2-(1,2-oxazol-3-ylmethyl)-1H-imidazo[4,5-c]quinoline-8-carbonitrile] |
| 6.92 | 6.80 |  |  | CC1(C)CC(n2c(Cn3cc(C(F)(F)F)cn3)nc3cnc4ccc(F)cc4c32)CCO1 (stereo not shown) [Example 81, 1-(2,2-dimethyltetrahydro-2H-pyran-4-yl)-8-fluoro-2-{[4-(trifluoromethyl)-1H-pyrazol-1-yl]methyl}-1H-imidazo[4,5-c]quinoline, trifluoroacetate salt] |
| 8.09 | 7.77 |  |  | Cc1cc(Cc2nc3cnc4ccc(Br)cc4c3n2[C@H]2CCO[C@@H](C)C2)no1 (racemic) [Example 58, 8-bromo-2-[(5-methyl-1,2-oxazol-3-yl)methyl]-1-(cis-2-methyltetrahydro-2H-pyran-4-yl)-1H-imidazo[4,5-c]quinoline] |
| 7.04 | 7.07 |  |  | c1ccc2c(c1)ncc1nc(Cc3cscn3)n(C3CCOCC3)c12 [Example 36, 1-(tetrahydro-2H-pyran-4-yl)-2-(1,3-thiazol-4-ylmethyl)-1H-imidazo[4,5-c]quinoline, formate salt] |
| 7.31 | 6.96 | significantly less potent |  | Cc1nc(Cc2nc3cnc4ccc(Cl)cc4c3n2[C@H]2CCO[C@@H](C)C2)no1 [Example 51, 8-chloro-2-[(5-methyl-1,2,4-oxadiazol-3-yl)methyl]-1-[(2S,4S)-2-methyltetrahydro-2H-pyran-4-yl]-1H-imidazo[4,5-c]quinoline] |
| 6.88 | 6.55 |  |  | C[C@H]1C[C@@H](n2c(Cc3cn4ncsc4n3)nc3cnc4ccc(Cl)cc4c32)CCO1 (single isomer, unassigned) [Example 64] |
| 7.33 | 7.27 |  |  | CC1(C)CC(n2c(Cn3cc(C4CC4)nn3)nc3cnc4ccc(F)cc4c32)CCO1 (stereo not shown) [Example 79, 2-[(4-cyclopropyl-1H-1,2,3-triazol-1-yl)methyl]-1-(2,2-dimethyltetrahydro-2H-pyran-4-yl)-8-fluoro-1H-imidazo[4,5-c]quinoline, trifluoroacetate salt] |
| 8.72 | 8.51 |  |  | C[C@@H]1C[C@H](n2c(Cc3cscn3)nc3cnc4ccc(Cl)cc4c32)CCO1 [Example 53, 8-chloro-1-[(2R,4R)-2-methyltetrahydro-2H-pyran-4-yl]-2-(1,3-thiazol-4-ylmethyl)-1H-imidazo[4,5-c]quinoline] |
| 6.77 | 6.76 |  |  | Cc1nc2cnc3ccc(Br)cc3c2n1[C@H]1CC[C@@H](F)C1 [Example 6, 8-Bromo-1-[(1S,3R)-3-fluorocyclopentyl]-2-methyl-1H-imidazo[4,5-c]quinoline] |
| 7.91 | 7.73 |  |  | Cc1nc2cnc3ccccc3c2n1[C@H]1CCO[C@@H](CC#N)C1 (racemic) [Example 91, [cis-4-(2-methyl-1H-imidazo[4,5-c]quinolin-1-yl)tetrahydro-2H-pyran-2-yl]acetonitrile] |
| 6.39 |  |  | 6.16 | CC[C@H]1C[C@@H](n2c(Cc3ccon3)nc3cnc4ccc(C#N)cc4c32)CCO1 [enantiomer of Example 67, 1-[(2S,4S)-2-ethyltetrahydro-2H-pyran-4-yl]-2-(1,2-oxazol-3-ylmethyl)-1H-imidazo[4,5-c]quinoline-8-carbonitrile] |
| 6.93 | 6.71 |  |  | FC1(F)CCC(n2c(Cc3ccon3)nc3cnc4ccccc4c32)CC1 [Example 48, 1-(4,4-difluorocyclohexyl)-2-(1,2-oxazol-3-ylmethyl)-1H-imidazo[4,5-c]quinoline] |
| 7.09 | 6.99 |  |  | CC1(C)CC(n2c(Cc3ccon3)nc3cnc4ccccc4c32)CCO1 (stereo not shown) [Example 47, 1-(2,2-dimethyltetrahydro-2H-pyran-4-yl)-2-(1,2-oxazol-3-ylmethyl)-1H-imidazo[4,5-c]quinoline] |
| 8.19 | 8.20 |  |  | C[C@@H]1C[C@H](n2c(CC#N)nc3cnc4ccc(Cl)cc4c32)CCO1 [Example 9, {8-Chloro-1-[(2R,4R)-2-methyltetrahydro-2H-pyran-4-yl]-1H-imidazo[4,5-c]quinolin-2-yl}acetonitrile] |
| 5.91 |  |  | 5.84 | Cc1nc(Cc2nc3cnc4ccc(Cl)cc4c3n2C2CCOC(CC#N)C2)no1 (single isomer, unassigned; ent-2) [enantiomer of Example 135, [cis-4-{8-chloro-2-[(5-methyl-1,2,4-oxadiazol-3-yl)methyl]-1H-imidazo[4,5-c]quinolin-1-yl}tetrahydro-2H-pyran-2-yl]acetonitrile, ENT-2] |
| 6.65 |  |  | 6.29 | C[C@H]1C[C@@H](n2c(Cc3ccon3)nc3cnc4ccc(Br)cc4c32)CCO1 (single isomer, unassigned) [enantiomer of Example 12] |
